The text below walks through data of patent publication US20250041264A1, “METHOD FOR TREATING DIABETES BY USING ANTRODIA CAMPHORATA COMPOUND” (Lantyng Biotechnology Corp., priority 2023, published 2025).

The subject of data set [1] is Type 2 Diabetic Mice. As to the kind of experiment: ALT and AST biochemical analysis in blood (liver function). Type of data set: in vivo. To be noted: later stage of treatment (4 weeks), Hitachi 7080 blood biochemical analyzer.
Method: Mice were adapted to feed water and food arbitrarily every week, and after one week, they were fed in groups from the commercial feed 1320 (containing 11% fat) purchased from EJOY2 CORP. (New Taipei City, Taiwan) and D12451 (containing 45% high-fat feed) purchased from MEDGENE CO., LTD. (Taichung, Taiwan), induced for 12 weeks.
On the last day of the experiment, all animals (except for unplanned deaths) were fasted for 20 hours at the National Laboratory Animal Center and euthanized with pure carbon dioxide, followed by necropsy, organ weight (liver) and gross examination, including evaluation of liver and pancreas. Most lesions of animals were recorded at the time of final sacrifice, including scheduled euthanasia and unscheduled deaths. […]
The test system of data set [2] is Type 2 Diabetic Mice. As to the kind of experiment: Oral glucose tolerance test (OGTT), final week (16th week), high-fat-diet type 2 diabetic mice. The format is in vivo, mice C57BL/6JNarl. The following applies: for average blood sugar at 120 minutes (OGTT): n=6, 120 minutes. As to the method:
This experiment uses four-week-old male mice C57BL/6JNarl from National Laboratory Animal Center (Taipei, Taiwan), and they were bred with 12 hours of light/dark cycle under the environment of 23° C.±2° C. Mice were adapted to feed water and food arbitrarily every week, and after one week, they were fed in groups from the commercial feed 1320 (containing 11% fat) purchased from EJOY2 CORP. (New Taipei City, Taiwan) and D12451 (containing 45% high-fat feed) purchased from […] CO., LTD. (Taichung, Taiwan), induced for 12 weeks. During the experiment, the body weight of the mice and the fasting blood sugar value were measured every week and their changes were recorded. The mean±3SD of fasting blood sugar in mice was calculated. If the fasting blood sugar value exceeds the mean±3SD of the normal diet group, tube feeding administration would be started for 4 weeks, and blood sugar tolerance would be tested by tail vein blood collection in the last week of the experiment. […] Referring to FIGS. 1-2, they show the test results of oral glucose tolerance test (OGTT), respectively. Group A (NFD), Group B (NFD+5), Group C (NFD+20), Group D (HFD), Group E (HFD+5), Group F (HFD+10), Group G (HFD+20), Group H (Glibenclamide). NFD refers to normal fat diet, HFD refers to high fat diet, and Glibenclamide is an oral hypoglycemic drug that belongs to type 2 (non-insulin dependent) diabetic patients.

For data set [3], the system named is Type 2 Diabetic Mice. The data set is described as follows: Low-density lipoprotein (LDL) detection. Type of data set: in vivo, mice C57BL/6JNarl. To be noted: HFD+5 group (SY1 5 mg/kg) compared with Western medicine group and HFD+10.

Entries after “also recorded” stand apart in the source; their conditions may differ.

`COc1ccc(Cl)cc1C(=O)NCCc1ccc(S(=O)(=O)NC(=O)NC2CCCCC2)cc1` [Glibenclamide, reference compound]: the “liver function index (AST, ALT in blood)” value with Type 2 Diabetic Mice [1] is “increased and reached a significant difference”. Besides, the “fasting blood sugar when no sugar water was fed (OGTT, 16th week)” value with Type 2 Diabetic Mice [2] (HFD, Glibenclamide 5 mg/kg, after 4 weeks of drug treatment) is given as “higher fasting blood sugar increase than any other group”. In addition, the “effect on lowering blood sugar in the later stage of treatment” value with Type 2 Diabetic Mice [2] (HFD, Glibenclamide 5 mg/kg, after 4 weeks of drug treatment, compared with SY1) was “worse than that of SY1”.

With `COc1cc(C)c(OC)c2c1OCO2` [SY1, 4,7-dimethoxy-5-methyl-1,3-benzodioxole], the “liver function index (AST, ALT in blood)” value in the data set on Type 2 Diabetic Mice [1] is reported as “this phenomenon was not seen”. Besides, the “hypoglycemic effect compared with other groups (OGTT)” value in the data set on Type 2 Diabetic Mice [2] (HFD+5 group (SY1 5 mg/kg) versus HFD+10, HFD+20 and Glibenclamide groups, 5 mg/kg) was “equivalent to that of the HFD+10 group; also recorded: more obvious than the high-dose HFD+20 and hypoglycemic drug Glibenclamide group”. Besides, the “average blood sugar at 120 minutes (OGTT)” value is recorded as 155.83 in the data set on Type 2 Diabetic Mice [2] (HFD+5 group (high fat diet, SY1 5 mg/kg, tube feeding 4 weeks)) and 155.33 in the data set on Type 2 Diabetic Mice [2] (HFD+10 group (high fat diet, SY1 10 mg/kg, tube feeding 4 weeks)). In addition, the “effect on lowering blood sugar 30 minutes after feeding sugar water (OGTT)” value in the data set on Type 2 Diabetic Mice [2] (HFD+5 low-dose group (SY1 5 mg/kg)) and with Type 2 Diabetic Mice [2] (HFD+10 middle-dose group (SY1 10 mg/kg)) was “obvious effect on lowering blood sugar” each time. Further, in the data set with Type 2 Diabetic Mice [3], the “effect on lowering LDL” value is “not much different from that of the Western medicine group; also recorded: better than HFD+10”.
